# “And” between values parts separate entries of the source, which are not always exact repeats. Equal entries are not always repeated. Where two headings read alike, the source gives them in different places.
# Assays:
# MDM2 = molecular target: T1, MDM2 (Homo sapiens, UniProt Q00987); assay: Inhibition test of MDM2-P53 (GST-MDM2, Biotin-P53, Anti-GST-Tb, SA-XL665); format: binding; conditions: labels are Example numbers; the compounds with S-configuration are meant
# T1 construct: made in house
# T1 sequence (Q00987 whole entry): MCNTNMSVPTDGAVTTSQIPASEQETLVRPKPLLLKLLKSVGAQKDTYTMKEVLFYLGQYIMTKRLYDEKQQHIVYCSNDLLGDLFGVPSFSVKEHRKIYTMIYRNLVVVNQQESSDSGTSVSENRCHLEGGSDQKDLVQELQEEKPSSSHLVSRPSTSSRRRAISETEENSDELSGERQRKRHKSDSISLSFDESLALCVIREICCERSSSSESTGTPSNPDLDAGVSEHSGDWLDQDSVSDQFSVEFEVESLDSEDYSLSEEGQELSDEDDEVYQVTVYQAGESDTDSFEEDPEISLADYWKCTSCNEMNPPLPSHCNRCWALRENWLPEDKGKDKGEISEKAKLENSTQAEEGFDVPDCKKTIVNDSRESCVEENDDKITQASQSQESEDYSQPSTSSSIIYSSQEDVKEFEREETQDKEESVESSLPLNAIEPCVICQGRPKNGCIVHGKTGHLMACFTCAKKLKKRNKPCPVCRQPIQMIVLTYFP
# Experimental: Experimental purpose: To determine the inhibitory activities of the compounds of the present invention on MDM2.
# The present experiment uses the following assay methods/instruments/reagents:
# Buffer: 1×PBS+0.1% BSA+5 mM DTT; MDM2 Buffer: Buffer+1 mM AEBSF
# GST-MDM2: The final concentration is 4 nM, and it is required to formulate a 20 nM (5×) solution. A mother liquor is diluted by 3500 folds, wherein the mother liquor is 10-fold diluted first, and then 350-fold diluted.
# Anti-GST-Tb: The final concentration is 2×, and a mother liquor is diluted by 50 folds.
# MIX: GST-MDM2, Biotin-P53, SA-XL665 and Anti-GST-Tb were mixed according to a ratio of 4:4:5:5.
# Sample: Preparation of a sample (10 mM in DMSO) solution: a. 3 μL sample+7 μL DMSO+20 μL DMSO were formulated to give an initial concentration of 1 mM and mixed well; b. in plate 1, twelve 5-fold serial dilutions (sequentially prepared by adding 10 μL of the last sample to 40 μL DMSO) were prepared and mixed well, individually; c. plate 2 was taken, 45 μL of Buffer was added to each well, and 5 μL of dilution at each concentration was taken from plate 1 and added to the corresponding well in plate 2 (the concentration in well 1 was 100 μM), and mixed well.
# 1. 18 μL of MIX was added to a 384-well plate, and centrifugation was performed at 4500 rpm for 5 min.
# 2. 2 μL of sample was added correspondingly to each well, the resultant was centrifuged at 25° C. and 4500 rpm for 5 min, and shaked at 25° C. for 90 min on a shaker.
# Readings were obtained from the Microplate reader, and data was processed by Graphpad Prism 6.0.
# [1] = Pharmacokinetics in ICR mice after intravenous and intragastric administration; format: in vivo; conditions: for MRT last: read-out: MRT(0-t); for MRT inf: read-out: MRT(0-∞); for Tmax: read-out: Tmax; for Vd: read-out: Vz; for half-life: read-out: t1/2 (converted)
# Experimental: Experimental Example 3 Determination of the Pharmacokinetics of the Mdm2 Inhibitors of the Present Invention in Mice
# ICR mice were used as the test animals, and the concentrations of the drugs in plasma of mice at different time points after intravenous administration and intragastric administration of the representative compounds were measured by a LC/MS/MS method, so as to study the pharmacokinetic behavior of the compounds of the present invention in mice and evaluate the pharmacokinetic characteristics thereof.
# Some compounds prepared in Examples 1-180 of the present invention.
# The control drug HDM201 was prepared by the method disclosed in patent No. CN104203952A.
# Healthy adult ICR mice, male, 6-9 weeks old, weighing 20-30 g, purchased from Shanghai Xipuer-Bikai Laboratory Animal Co., Ltd., Animal Production License No.: SCXK (HU) 2013-0016
# 3.2.3 Preparation of Test Drugs
# Intragastric or intravenous administration: an appropriate amount of sample was weighed, dissolved in 5% DMSO+40% PEG400+55% (10% HP-β-CD in Saline) to prepare a 0.5 mg/ml solution for intragastric or intravenous administration.
# 3.2.4 Administration of Test Drugs
# Intravenous administration: for each test compound, 3 male ICR mice were administered intravenously at a dose of 2 mg/kg and an administration volume of […] after fasting overnight.
# Intragastric administration: for each test compound, 3 male ICR mice were administered intragastrically at a dose of 5 mg/kg and an administration volume of […] after fasting overnight.
# 3.3 Experimental Operation
# The collected plasma was stored at −80° C. before analysis. The plasma sample was analyzed by LC-MS/MS, and the sample was pretreated by protein precipitation method. The linear range of sample analysis was 1 to 2000 ng/ml. The lowest quantification limit was 1 ng/mL. WinNonlin (Pharsight, USA) was used to calculate the following pharmacokinetic parameters: area under the curve AUC(0-t), area under the curve AUC(0-∞), half-life t1/2, retention time MRT(0-∞), blood drug concentration Cmax, time taken to reach the peak blood drug concentration Tmax, bioavailability F, apparent volume of distribution Vz, and clearance rate CL.
# [2] = IV 2 mg/kg, ICR mice, individual animal, 2 mg/kg
# [3] = PO 5 mg/kg, ICR mice, individual animal, 5 mg/kg
# [4] = male, ICR, mouse, plasma, iv, 2 mg/kg, IV 2 mg/kg, ICR mice, Mean
# [5] = male, ICR, mouse, plasma, iv, 2 mg/kg, IV 2 mg/kg, ICR mice, individual animal
# [6] = male, ICR, mouse, plasma, po, 5 mg/kg, PO 5 mg/kg, ICR mice, Mean
# [7] = male, ICR, mouse, plasma, po, 5 mg/kg, PO 5 mg/kg, ICR mice, individual animal
structure (smiles),measurement,setting,value
"COc1ccncc1-c1nc2c(n1C(C)C)C1(C(=O)Nc3cc(Cl)ccc31)N(c1cc(Cl)ccc1C)C2=O (stereo not shown) [Example 18, 6-chloro-5′-(5-chloro-2-methylphenyl)-3′-isopropyl-2′-(4-methoxypyridin-3-yl)-3′H-spiro[dihydroindole-3,4′-pyrrolo[3,4-d]imidazole]-2,6′(5′H)-dione]",inhibitory effect on MDM2 compared with positive control compound HDM201,MDM2,better
"CNC(=O)c1ccc(OC)c(-c2nc3c(n2C(C)C)C2(C(=O)Nc4cc(Cl)ccc42)N(c2cc(Cl)ccc2C)C3=O)c1 (stereo not shown) [Example 21, 3-(6-chloro-5′-(5-chloro-2-methylphenyl)-3′-isopropyl-2,6′-dioxo-5′,6′-dihydro-3′H-spiro[dihydroindole-3,4′-pyrrolo[3,4-d]imidazole]-2′-yl)-4-methoxy-N-methylbenzamide]",inhibitory effect on MDM2 compared with positive control compound HDM201,MDM2,better
"COc1ccc(C(N)=O)cc1-c1nc2c(n1C(C)C)C1(C(=O)Nc3cc(Cl)ccc31)N(c1cc(Cl)ccc1C)C2=O (stereo not shown) [Example 29, 3-(6-chloro-5′-(5-chloro-2-methylphenyl)-3′-isopropyl-2,6′-dioxo-5′,6′-dihydro-3′H-spiro[dihydroindole-3,4′-pyrrolo[3,4-d]imidazole]-2′-yl)-4-methoxybenzamide]",inhibitory effect on MDM2 compared with positive control compound HDM201,MDM2,better
"COc1ncc(-c2nc3c(n2C(C)C)C2(C(=O)Nc4cc(Cl)ccc42)N(c2cc(Cl)ccc2F)C3=O)c(OC)n1 (stereo not shown) [Example 44, 6-chloro-5′-(5-chloro-2-fluorophenyl)-2′-(2,4-dimethoxypyrimidin-5-yl)-3′-isopropyl-3′H-spiro[dihydroindole-3,4′-pyrrolo[3,4-d]imidazole]-2,6′(5′H)-dione]",inhibitory effect on MDM2 compared with positive control compound HDM201,MDM2,better
"COc1ncc(-c2nc3c(n2C(C)C)C2(C(=O)Nc4cc(Cl)ccc42)N(c2ccc(OC)c(Cl)c2)C3=O)c(OC)n1 (stereo not shown) [Example 48, 6-chloro-5′-(3-chloro-4-methoxyphenyl)-2′-(2,4-dimethoxypyrimidin-5-yl)-3′-isopropyl-3′H-spiro[dihydroindole-3,4′-pyrrolo[3,4-d]imidazole]-2,6′(5′H)-dione]",inhibitory effect on MDM2 compared with positive control compound HDM201,MDM2,better
"COc1ccc(-c2nc3c(n2C(C)C)C2(C(=O)Nc4cc(Cl)ccc42)N(c2cc(Cl)c(=O)n(C)c2)C3=O)c(OC)c1 (stereo not shown) [Example 52, 6-chloro-5′-(5-chloro-1-methyl-6-oxo-1,6-dihydropyridin-3-yl)-2′-(2,4-dimethoxyphenyl)-3′-isopropyl-3′H-spiro[dihydroindole-3,4′-pyrrolo[3,4-d]imidazole]-2,6′(5′H)-dione]",inhibitory effect on MDM2 compared with positive control compound HDM201,MDM2,better
"COc1ncc(-c2nc3c(n2C(C)C)[C@H](c2ccc(Cl)cc2)N(c2cc(Cl)cn(C)c2=O)C3=O)c(OC)n1 [HDM201, reference compound]",AUC(0-t),[1]; [2],520.23 ng·h/mL and 622.13 ng·h/mL
same,AUC(0-∞),[1]; [2],600.29 ng·h/mL and 713.62 ng·h/mL
same,CL,[1]; [2],55.5285 mL/min/kg and 46.7105 mL/min/kg
same,Cmax,[1]; [2],459.85 ng/mL and 585.03 ng/mL
same,MRT(0-t),[1]; [2],40.8 min and 39.6 min
same,MRT(0-∞),[1]; [2],58.8 min and 57.6 min
same,Vz,[1]; [2],3.23181 L/kg and 2.7173 L/kg
same,t1/2,[1]; [2],40.2 min
same,F*,"[1]; PO 5 mg/kg vs IV 2 mg/kg, ICR mice",78.76%
same,AUC(0-t),[1]; [3],797.19 ng·h/mL and 1522.78 ng·h/mL
same,AUC(0-∞),[1]; [3],818.45 ng·h/mL and 1539.76 ng·h/mL
same,Cmax,[1]; [3],584.08 ng/mL and 715.01 ng/mL
same,MRT(0-t),[1]; [3],62.4 min and 109 min
same,MRT(0-∞),[1]; [3],69 min and 115 min
same,t1/2,[1]; [3],44.4 min and 74.4 min
same,AUC(0-inf),[1]; [4],644 ng·h/mL
same,clearance,[1]; [4],52 mL/min/kg
same,AUC(0-t),"[1]; male, ICR, mouse, plasma, iv, 2 mg/kg, IV 2 mg/kg, ICR mice, Mean, read-out: AUC(0-t)",572 ng·h/mL
same,Cmax,"[1]; male, ICR, mouse, plasma, iv, 2 mg/kg, IV 2 mg/kg, ICR mice, Mean, read-out: Cmax",550 ng/mL
same,MRT last,[1]; [4],38.4 min
same,MRT inf,[1]; [4],54 min
same,Tmax,[1]; [4],4.98 min
same,Vd,[1]; [4],2.8 L/kg
same,half-life,[1]; [4],37.2 min
same,AUC(0-inf),[1]; [5],619 ng·h/mL
same,clearance,[1]; [5],53.8 mL/min/kg
same,AUC(0-t),"[1]; male, ICR, mouse, plasma, iv, 2 mg/kg, IV 2 mg/kg, ICR mice, individual animal, read-out: AUC(0-t)",574 ng·h/mL
same,Cmax,"[1]; male, ICR, mouse, plasma, iv, 2 mg/kg, IV 2 mg/kg, ICR mice, individual animal, read-out: Cmax",606 ng/mL
same,MRT last,[1]; [5],35.4 min
same,MRT inf,[1]; [5],45 min
same,Tmax,[1]; [5],4.8 min
same,Vd,[1]; [5],2.46 L/kg
same,half-life,[1]; [5],31.8 min
same,AUC(0-inf),[1]; [6],1150 ng·h/mL
same,AUC(0-t),"[1]; male, ICR, mouse, plasma, po, 5 mg/kg, PO 5 mg/kg, ICR mice, Mean, read-out: AUC(0-t)",1130 ng·h/mL
same,Cmax,"[1]; male, ICR, mouse, plasma, po, 5 mg/kg, PO 5 mg/kg, ICR mice, Mean, read-out: Cmax",569 ng/mL
same,MRT last,[1]; [6],96 min
same,MRT inf,[1]; [6],103 min
same,Tmax,[1]; [6],30 min
same,half-life,[1]; [6],66.6 min
same,AUC(0-inf),[1]; [7],1080 ng·h/mL
same,AUC(0-t),"[1]; male, ICR, mouse, plasma, po, 5 mg/kg, PO 5 mg/kg, ICR mice, individual animal, read-out: AUC(0-t)",1060 ng·h/mL
same,Cmax,"[1]; male, ICR, mouse, plasma, po, 5 mg/kg, PO 5 mg/kg, ICR mice, individual animal, read-out: Cmax",409 ng/mL
same,MRT last,[1]; [7],116 min
same,MRT inf,[1]; [7],125 min
same,Tmax,[1]; [7],30 min
same,half-life,[1]; [7],80.4 min
same,AUC(0-t),"[1]; male, ICR, mouse, plasma, po, 5 mg/kg, oral intragastric administration 5 mg/kg, read-out: AUC0-t",1130 ng·h/mL
same,bioavailability,"[1]; male, ICR, mouse, plasma, oral intragastric administration 5 mg/kg, read-out: bioavailability",78.8%
